Reference: paper PMC12385147, “Discovery of Novel 2-Substituted Aniline Pyrimidine Based Derivatives as Potent Mer/c-Met Dual Inhibitors with Improvement Bioavailability” (Biomolecules, 2025)
Like-named read-outs stand apart in the source and are kept apart here.

Assays:
HCT116 = test: Antiproliferation CCK-8 assay, HCT116; format: cell-based; conditions: for IC50: Homo sapiens, HCT-116
Experimental: (§1) The HepG2, MDA-MB-231, and HCT116 cell lines were derived from our own laboratory (the laboratory of our collaborator, Dr. Xiaolei Zhou, at College of Food Science and Biology in Hebei University of Science and Technology). The antiproliferative activities were assessed using the CCK-8 assay. Cell viability was measured according to the manufacturer’s instructions for the Cell Counting Kit-8 (Meilunbio, Dalian, China). In this assay, 2.5 × 10^3 cells per well were seeded into 96-well plates.
(§2) After an initial 12 h incubation, cancer cells were exposed to varying concentrations of compound 17c for 72 h. Following CCK-8 solution addition and 2 h incubation, the absorbance at 450 nm was measured using a BioTek Synergy HTX microplate reader. Experiments included triplicate wells with three independent replicates. The IC50 values for compound 17c were derived from an analysis of the dose–response curves in GraphPad PRISM 9.5.

HepG2 = test: Antiproliferation CCK-8 assay, HepG2; format: cell-based; conditions: Homo sapiens, CCK-8, 72 h
Experimental: as §1, §2

[1] = tested on: Mer kinase phosphorylation; test: Western blot, Mer phosphorylation in HCT116 cells; format: cell-based, human; conditions: 2.5 μM, 24 h, compared to the positive control
Experimental: Western blot assay was performed according to established protocols. HCT colon cancer cells were exposed to the specified concentration of compound 17c for 24 h, after which whole cell lysates were prepared using RAPI cell lysis buffer (Beyotime Institute of Biotechnology, Shanghai, China). Primary antibodies, purchased from Beyotime Institute of Biotechnology, were diluted at a ratio of 1:2000. The protein bands on polyvinylidene fluoride membranes were visualized and analyzed using Glyco Band-Scan Software Version 4.50. The antibody details are as follows:
Name: Phospho-MER/TYRO3 (Tyr753/Tyr685) antibody, Species: Rabit, Sequence: synthesized peptide derived from human MER/TYRO3 around the Phosphorylation site of Tyr753/Tyr685, Dilution: 1:2000, RRID number: AB_2840500, Catalogue number: AF8443, Supplier: Affinity Biosciences (Beijing, China).

HCT116 cells = test: Transwell migration assay of HCT116 cells; format: cell-based; conditions: 24 h
Experimental: Migration assays were conducted using Transwell® inserts (Costar, Cambridge, MA, USA) with an 8 μm pore size polycarbonate membrane. HCT116 cells (1.5 × 10^5) were seeded into the upper chamber with serum-free medium containing 0.2% BSA, while the lower chamber contained medium supplemented with 15% FBS. Compound 17c was applied at the specified concentrations to both sides of the membrane. After 24 h of incubation at 37 °C, the cells were fixed in methanol and stained with 0.1% crystal violet. Non-migrated cells on the upper surface of the membrane were removed using a cotton swab. Five random fields per well were imaged under brightfield microscopy, and the number of migrated cells was quantified using ImageJ software (1.53c). Each experiment was performed in triplicate.

MDA-MB-231 = test: Antiproliferation CCK-8 assay, MDA-MB-231; format: cell-based; conditions: Homo sapiens, CCK-8, 72 h
Experimental: as §1, §2

In the case of `Cc1c(C(=O)Nc2ccc(Oc3ccnc(Nc4cccc(OC5CCN(C)CC5)c4)n3)cc2)c(=O)n(-c2ccccc2)n1C` [compound 17c, 1,5-dimethyl-N-(4-((2-((3-((1-methylpiperidin-4-yl)oxy)phenyl)amino)pyrimidin-4-yl)oxy)phenyl)-3-oxo-2-phenyl-2,3-dihydro-1H-pyrazole-4-carboxamide], the “fold improvement over cabozantinib” value (HCT116; HCT116 cells) is reported as 17.1 fold, the IC50 (HCT116; CCK-8, 72 h, read-out: IC50 HCT116) is reported as 3790 ± 1090 nM and the IC50 (HCT116; CCK-8, read-out: IC50 HCT116 cells) is reported as 460 ± 60 nM. The IC50 (HepG2) was 460 ± 60 nM, the “inhibition of Mer kinase phosphorylation” value [1] was “significantly inhibited the phosphorylation” and the “inhibition of HCT116 cell migration” value (HCT116 cells) was “effectively inhibits the migration capacity”. It also gave an IC50 (MDA-MB-231) of 2310 ± 670 nM.
